Tests used:
Type in all cases: cell-based
[1] = system: Jurkat human leukemia T cells; assay: Cell cycle stage in Jurkat cells (propidium iodide flow cytometry); conditions: Jurkat, 24 h, 100 μg/ml
Description: Cell cycle stage was determined using a […]™ PLUS DNA commercial kit (Becton Dickinson). Briefly, nuclei from cells were obtained by dissolving the cell membrane in a nonionic detergent, eliminating the cell cytoskeleton and nuclear proteins with trypsin, digesting the cellular RNA with RNase and stabilizing the nuclear chromatin with spermine. Propidium iodide was added to the cell nuclei and their fluorescence was analyzed in a flow cytometer equipped with electronic doublet discrimination capability (FACSCalibur, Becton Dickinson, San Jose, Calif.). Accumulation of cells in G0/G1, early S (SE), mid S (SM), late S (SL) or G2/M phases of the cell cycle was analyzed using MODFIT LT software (Verity Software House Inc., Topsham, Mass.).
Exponentially growing Jurkat human leukemia T cells (Table 28) and MCF-7 human breast cancer cells (5×10^5 cells/ml) (Table 29) were incubated for 24 h with 2, 6, 15, 18, 27 and 45 base sequences containing A, C, G and T. The cells were collected and centrifuged and cell cycle stage was determined.
Jurkat human cell leukemia T cells (1×10^6 cells/ml) were incubated for 24 h with 6 base GT SEQ ID NO:25, conplementary 6 base AC SEQ ID NO:79 and 6 base GT SEQ ID NO:25+6 base AC SEQ ID NO:79. GT SEQ ID NO:25 and AC SEQ ID NO:79 were hybridized by mixing the oligonucleotides (1:1) and heating for 10 minutes at 65° C. As controls, GT SEQ ID NO:25 and AC SEQ ID NO:79 were heated for 10 minutes at 65° C. (Table 30).

[2] = system: Jurkat human leukemia T cells; assay: Inhibition of Jurkat human leukemia T cell proliferation (MTT reduction); conditions: for % INHIBITION of Jurkat human leukemia T cell proliferation: 100 μg/ml sequence, 48 h, 2.5×10^5 cells/ml; for % INHIBITION of Jurkat proliferation at suboptimal concentration: 5.0 μg/ml of each 6 base sequence, alone or two together
Description: Cells were seeded in 6 (1 ml/well), 24 (0.5 ml/well) or 96 (0.1 ml/well) well flat-bottom microplates and were maintained at 37° C. in a 5% CO2 atmosphere. Unless stated otherwise, 2.5×10^5 cells/ml were incubated with 0 μg/ml (control) and 100 μg/ml (treated) of 2 to 45 base sequences containing A, C, G and T for 48 h.
MTT was measured at a wavelength of 570 nm using a multiplate spectrophotometer reader (ELX800, Bio-TEK Instruments Inc., Winooski, Vt.).
Jurkat human leukemia T cells are an atypical multi-drug resistant human suspension tumor cell model.

[3] = system: THP-1 human acute monocytic leukemia cells; assay: Cytokine production by THP-1 cells (ELISA); conditions: THP-1, 1×10^6 cells, 100 μg/ml, 48 h; for ↑ IL-12 (fold increase treated vs control cells): p70 complex and free p40
Description: (§1) Unless stated otherwise, 1×10^6 cells were incubated with 100 μg/ml of each of the sequences tested for 48 h at 37° C. in 5% CO2. Production of cytokines IL-6, IL-10, IL-12, IL-1beta and TNF-alpha was determined in pg/ml in 100 μl of culture supernatant using the appropriate commercial ELISA (BioSource, Camarillo Calif.). The IL-12 ELISA measures both IL-12 p70 complex and free p40 subunit. Results are expressed as the “fold” (×) increase in cytokine production by treated cells compared to control cells.
THP-1 human acute monocytic leukemia cells were incubated with 2, 3, 6, 9, 12, 14, 15 and 18 base GT sequences and production of the cyotkine IL-6 was determined (Table 35).
THP-1 human acute monocytic leukemia cells were incubated with 6 base GT, AG, CG, GG, AGT and CGT sequences and production of the cytokines IL-12 and IL-6 was determined (Table 36).
THP-1 human acute monocytic leukemia cells were incubated with 6 base GT sequences, having either an oxygen (phosphodiester) or a sulfur (phosphorothioate) as the nonbridging atom on the phosphate groups and production of the cytokine IL-12 was determined (Table 39).
THP-1 human acute monocytic leukemia cells were incubated with 6 base GT SEQ ID NO:25, having either an oxygen (phosphodiester) or a sulfur (phosphorothioate) as the nonbridging atom on the phosphate groups and production of the cytokine IL-12 was determined (Table 40).

chimpanzee PBMCs = assay: Cytokine production by chimpanzee PBMC (ELISA); conditions: PBMC of 4 healthy chimpanzees, 100 μg/ml, 48 h
Description: as §1
PBMCs were isolated from 4 healthy chimpanzees as in Example 35. Chimpanzee PBMCs were incubated with 6 base GT, AGT, CGT, AG, CG and GG sequences and production of the cytokines IL-10, IL-12 and TNF-alpha was determined (Table 41).

rhesus monkey PBMCs = assay: Cytokine production by rhesus monkey PBMC (ELISA); conditions: PBMC of 4 healthy rhesus monkeys, 100 μg/ml, 48 h
Description: as §1
PBMCs were isolated from 4 healthy rhesus monkeys as in Example 35. PBMCs were incubated with 6 base GT, AGT, CGT, AG, CG ands GG sequences and production of the cytokines IL-6, IL-12 and TNF-alpha was determined (Table 42).

[4] = system: human peripheral blood mononuclear cells; assay: Cytokine production by human PBMC (ELISA); conditions: PBMC of 7 healthy humans, 100 μg/ml, 48 h
Description: as §1
Peripheral blood mononuclear cells (hereinafter, “PBMCs”) were isolated from 7 healthy humans by Ficoll-Hypaque (Amersham Pharmacia Biotech, Baie d'Urfée, Québec, Canada) by density gradient centrifugation of whole blood. PBMCs were incubated with 6 base GT, AGT, CGT, AG, CG and GG sequences and production of the cytokines IL-1beta, IL-6, IL-10 and IL-12 were determined.

Sequence | % of cells in phase: G0/G1 [1] [%] | % of cells in phase: G2/M [1] [%] | % of cells in phase: SE [1] [%] | % of cells in phase: SL [1] [%] | % of cells in phase: SM [1] [%] | Arrest (cell cycle) [1] | % INHIBITION of Jurkat human leukemia T cell proliferation [2] [%] | ↑ IL-6 (fold increase treated vs control cells) [3] [x] | ↑ IL-12 (fold increase treated vs control cells) [3] [x] | IL-10 fold increase: mean +/− SD (chimpanzee PBMCs) | IL-12 fold increase: mean +/− SD (chimpanzee PBMCs) | TNF-alpha fold increase: mean +/− SD (chimpanzee PBMCs) | IL-10 fold increase: mean +/− SD (rhesus monkey PBMCs) | IL-12 fold increase: mean +/− SD (rhesus monkey PBMCs) | TNF-alpha fold increase: mean +/− SD (rhesus monkey PBMCs) | IL-1 beta fold increase: mean +/− SD [4] | IL-6 fold increase: mean +/− SD [4] | IL-10 fold increase: mean +/− SD [4] | IL-12 fold increase: mean +/− SD [4] | % INHIBITION of Jurkat proliferation at suboptimal concentration [2] [%]
GGCCGG [SEQ ID NO:43] | 26.5 | 18.7 | 21.3 | 10.7 | 22.8 | End SM | 29 | 17.1 | 3.1 | 13.6 +/− 9.0 fold increase | 15.1 +/− 10.2 fold increase | 14.0 +/− 6.6 fold increase | 1.0 +/− 0.2 fold increase | 11.7 +/− 4.8 fold increase | 16.9 +/− 3.5 fold increase | 1.5 +/− 0.9 fold increase | 14.9 +/− 10.2 fold increase | 1.2 +/− 0.3 fold increase | 2.5 +/− 2.0 fold increase | 
GGAAGG (unmodified DNA) [SEQ ID NO:42] | 48.0 | 34.1 | 19.8 | 5.8 | 8.5 | End | 22 | 29.2 | 4.1 | 9.9 +/− 8.9 fold increase | 15.6 +/− 10.6 fold increase | 14.4 +/− 7.1 fold increase | 1.2 +/− 0.2 fold increase | 11.9 +/− 5.4 fold increase | 16.5 +/− 4.5 fold increase | 3.5 +/− 3.9 fold increase | 11.8 +/− 5.8 fold increase | 1.1 +/− 0.2 fold increase | 3.0 +/− 2.7 fold increase | 
GGTTGG [SEQ ID NO:41] |  |  |  |  |  |  | 43 | 16.0 | 3.3 | 9.1 +/− 7.7 fold increase | 15.3 +/− 10.0 fold increase | 14.1 +/− 7.3 fold increase | 1.9 +/− 1.5 fold increase | 11.5 +/− 5.9 fold increase | 14.1 +/− 8.2 fold increase | 3.2 +/− 3.0 fold increase | 7.8 +/− 12.8 fold increase | 1.0 +/− 0.1 fold increase | 4.9 +/− 8.6 fold increase | 4
TGGTTG [SEQ ID NO:29] |  |  |  |  |  |  | 42 | 10.5 | 4.1 | 3.1 +/− 2.0 fold increase | 13.6 +/− 8.8 fold increase | 12.4 +/− 7.3 fold increase | 1.1 +/− 0.2 fold increase | 11.1 +/− 4.2 fold increase | 16.5 +/− 2.7 fold increase | 1.7 +/− 1.0 fold increase | 9.3 +/− 12.1 fold increase | 1.0 +/− 0.1 fold increase | 3.3 +/− 4.2 fold increase | −1
ATGTAT (unmodified DNA) [SEQ ID NO:30] |  |  |  |  |  |  | 16 | 9.8 | 4.8 | 1.4 +/− 0.4 fold increase | 10.7 +/− 7.0 fold increase | 5.9 +/− 3.3 fold increase | 1.9 +/− 1.4 fold increase | 6.0 +/− 1.9 fold increase | 6.9 +/− 4.7 fold increase | 1.1 +/− 0.2 fold increase | 4.6 +/− 4.4 fold increase | 1.0 +/− 0.1 fold increase | 1.3 +/− 0.2 fold increase | 
GTGTGTGTGTGT [SEQ ID NO:14] |  |  |  |  |  |  | 51 | 1.3 |  |  |  |  |  |  |  | 1.1 +/− 0.2 fold increase | 2.0 +/− 1.5 fold increase | 1.0 +/− 0.1 fold increase | 2.0 +/− 1.1 fold increase | 
TCGTTC [SEQ ID NO:37] |  |  |  |  |  |  | 20 | 12.9 | 2.2 | 3.4 +/− 2.6 fold increase | 14.1 +/− 10.0 fold increase | 11.4 +/− 6.4 fold increase | 1.1 +/− 0.2 fold increase | 10.0 +/− 3.8 fold increase | 14.7 +/− 3.1 fold increase | 1.2 +/− 0.4 fold increase | 7.5 +/− 9.8 fold increase | 1.0 +/− 0.1 fold increase | 1.4 +/− 1.1 fold increase | 
CTGTCT [SEQ ID NO:36] |  |  |  |  |  |  | 19 | 15.9 | 2.0 | 3.0 +/− 2.1 fold increase | 13.4 +/− 8.9 fold increase | 12.4 +/− 6.3 fold increase | 1.0 +/− 0.1 fold increase | 10.7 +/− 4.6 fold increase | 15.3 +/− 3.6 fold increase | 1.2 +/− 0.3 fold increase | 5.3 +/− 3.6 fold increase | 1.0 +/− 0.1 fold increase | 1.2 +/− 0.3 fold increase | 
